Reference: BindingDB's records for doi:10.1016/j.ejmech.2013.06.048 (University of Siena, 2013)

experiment: Inhibition of estrogen receptor alpha-mediated human MCF7 cell growth inhibition

IC50, 64.9 µM:
COc1ccc2c(c1)CC[C@@H]1[C@@H]2CC[C@]2(C)[C@@H](OC(C)=O)CC[C@@H]12
COc1cc(C(=O)CCc2cc3c(cc2OC)CC[C@@H]2[C@@H]3CC[C@]3(C)[C@@H](O)CC[C@@H]23)ccc1O
COc1cc2c(cc1C=O)[C@H]1CC[C@]3(C)[C@@H](OC(C)=O)CC[C@H]3[C@@H]1CC2
